Measured values from US20210154272A1, “NEUROMODULATING COMPOSITIONS AND RELATED THERAPEUTIC METHODS FOR THE TREATMENT OF CANCER BY MODULATING AN ANTI-CANCER IMMUNE RESPONSE” (Flagship Pioneering Innovations V, Inc., priority 2016, published 2021).

How the values were obtained:
primary human T cells = experiment: T cell activation and cytokine secretion assay (LEGENDplex); format: cell-based
Experimental: Peripheral blood mononuclear cells (PBMCs) were isolated from whole blood by ficoll density separation. Briefly, blood was diluted 1:2 with 0.5 mM EDTA solution in PBS, loaded onto a Ficoll-filled Leucosep tube (Greiner Bio-One), and centrifuged for 20 minutes at 1000×g. After centrifugation, the leukocyte/PBMC layer on top of the separation medium was collected and sequentially washed three times with 0.5 mM EDTA solution in PBS. T cells were isolated from PBMCs using magnetic bead-based separation following vendor specification, e.g., Biolegend MojoSort Human CD4/CD8 Naïve T Cell Isolation Kit protocol. In brief, the PBMCs were labeled with biotinylated antibodies against cell surface receptors for cells not in the population of interest. The labeled cells are then captured by streptavidin-coated magnetic beads and removed by magnetic incubation. The uncaptured cells that flow through the magnetic separation are predominantly comprised of the population of interest, in this instance CD3+ T cells. T cells were stained with a 5 μM solution of Tag-it Violet™ dye (BioLegend) for 20 minutes protected from light. The stain was quenched by incubating the cells in cell culture medium containing 10% FBS (complete media). Stained cells were plated on tissue culture plates and sub-maximally activated with concanavalin A (con A) added to the culture medium. Cells were plated at 0.1×10^6 cells well. […] Cells were collected at 24, 48, and 72 hrs. Supernatants were collected at 24, 48, and 72 hrs and cytokine secretion was analyzed by flow cytometry using a LEGENDplex assay (BioLegend). In brief, following manufacturer's protocol, beads pre-coated with antibodies specific to various cytokines were incubated with cell supernatant. […] The beads were then stained and the captured cytokine composition assessed by flow cytometry.

[1] = test system: T cells in the lymph node; experiment: Lymph node remodeling by hock injection, flow cytometry of lymph node cells; format: in vivo, C57BL/6J mice; settings: hock injection of Haloperidol 48.5 nmol followed by quinpirole 0.1 nmol; 24 hours
Experimental: 24 hours after hock injection, brachial lymph nodes (LN) were harvested in culture medium (RPMI+10% FBS). LNs were transferred to 24-well tissue culture plates containing 0.5 mL LN digestion buffer (RPMI, 2% FBS, collagenase D (3.3 mg/mL), and DNAse I (40 ug/mL)). LN capsules were manually opened with two syringe (26G) needles and the LNs were incubated in digestion buffer for 15 minutes. Digested LNs were filtered with a 40 μNA cell strainer and tissues were smashed with the plunger of a 5 mL syringe. Collected cells were washed in culture medium and plated for assays. Total number of viable cells were assessed by staining with viability dye eFluor 780 (eBioscience). Surface markers of various immune cell subsets were analyzed by staining the cells with antibodies for cell identity (CD3, CD4, CD8, CD19), for the inflammatory marker CD69, and the migratory marker CCR7. The cells were then assayed by flow cytometry.

[2] = test system: macrophages differentiated from CD14+ monocytes; experiment: Macrophage activation and cytokine secretion assay; format: cell-based, human; settings: dilutions from 10 μM to 1 nM
Experimental: Peripheral blood mononuclear cells (PBMCs) were isolated from whole blood by ficoll density separation. Briefly, blood was diluted 1:2 with 0.5 mM EDTA solution in PBS, loaded onto a Ficoll-filled Leucosep tube (Greiner Bio-One), and centrifuged for 20 minutes at 1000×g. After centrifugation, the leukocyte/PBMC layer was collected and sequentially washed three times with 0.5 mM EDTA solution in PBS.
Monocytes (CD14+) were isolated from PBMCs using magnetic bead-based separation following vendor specifications, e.g., Biolegend MojoSort Human CD14 Selection Kit protocol. In brief, PBMCs were labeled with biotinylated antibodies against cell surface receptors for cells not in the population of interest. The labeled cells are then captured by streptavidin-coated magnetic beads and removed by magnetic incubation. The uncaptured cells that flow through the magnetic separation are predominantly comprised of the population of interest, in this case CD14+ monocytes.
Monocytes were differentiated into macrophages by culturing in DMEM complete medium containing 10% FBS for seven days in the presence of 40 ng/mL human M-CSF. Media was changed on day 1 and day 4. On Day 4, macrophages were polarized to various subtypes as follows: M0—incubated with 40 ng/mL M-CSF; M1—cultured with 40 ng/mL M-CSF, 20 ng/mL IFNγ, and 50 ng/mL LPS; M2—incubated with 40 ng/mL M-CSF, 20 ng/mL 1L4, 20 ng/mL IL10, and 20 ng/mL TFGB. On day 7, cells were harvested by scraping them from the tissue culture plates and transferring them to 96-well plates.
Supernatants were collected at 24, 48, and 72 hrs and cytokine secretion was analyzed by flow cytometry using a LEGENDplex assay (BioLegend). In brief, following manufacturer's protocol, beads that are pre-coated with antibodies specific to various cytokines were incubated with cell supernatant. […] The beads were then stained and the captured cytokine composition assessed by flow cytometry.
M1 macrophage polarization is defined as increase in production of IL-12, TNF, IL-6, IL-8, IL-1B, MCP-1 and CCL2. Additionally, markers of M1 polarization that can be detected by RNA include Nos2. M2 polarization is defined as increase in IL-10 and/or a decrease in the M1 cytokines listed above. Additionally, markers of M2 polarization that can be detected by RNA include Arg1, IDO, PF4, CCL24, IL10, and IL4Ralpha.

[3] = test system: Primary Natural Killer (NK) cells; experiment: NK cell ADCC assay with trastuzumab-coated Her2 expressing target cells; format: cell-based, human; settings: for ADCC of NK cells treated with metaproterenol alone relative to NK cells pre-treated with this antagonist prior to the agonist: antagonist pre-treatment prior to metaproterenol
Experimental: Primary Natural Killer (NK) cells are isolated from human peripheral blood using a magnetic bead-based separation kit that negatively selects NK cells by sequestering other defined cell types (T, B, monocytes, etc.). Isolated NK cells are incubated with a target cell line, for example a Her2 expressing cancer cell line that has been pre-coated with trastuzumab, an anti-Her2 antibody, at a range of target-to-effector cell ratios. Following antibody-dependent cell cytotoxicity (ADCC)—antibody-mediated killing of the target cells by the NK cells, the number of surviving target cells is assessed by a fluorescent viability stain.

[4] = low sub-nanomolar concentrations, 72 hours post treatment
[5] = T cells from two different donors, multiple time points

NCCc1ccc(O)c(O)c1 [dopamine]
production of the pro-survival cytokine IL-2 (primary human T cells; 24 and 48 hours post stimulation, nanomolar concentrations): increase
production of the pro-inflammatory cytokine IL-5 (primary human T cells; [4]): increase
production of the pro-inflammatory cytokine IL-6 (primary human T cells; [4]): increase
production of the pro-inflammatory cytokine IL-10 (primary human T cells; [4]): increase
production of the pro-inflammatory cytokine IL-13 (primary human T cells; [4]): increase
production of the pro-inflammatory cytokine IFNγ (primary human T cells; low sub-nanomolar concentrations, 72 hours post treatment, con A sub-maximally activated T cells): increase

O=C(CCCN1CCC(O)(c2ccc(Cl)cc2)CC1)c1ccc(F)cc1 [haloperidol]
effect of antagonist pre-treatment on the quinpirole-induced increase of CCR7+ T cells in the lymph node [1]: inhibited

CC(C)NCC(O)c1ccc(O)c(O)c1 (stereo not drawn) [isoproterenol]
production of pro-inflammatory cytokine IFNγ (primary human T cells; T cells from two different donors, 72 hours (FIG. 6A)): decreased
production of pro-inflammatory cytokine TNFα (primary human T cells; T cells from two different donors, 72 hours (FIG. 6B)): decreased
production of pro-inflammatory cytokine IL-10 (primary human T cells; T cells from two different donors, 72 hours (FIG. 6C)): decreased
amount of pro-inflammatory cytokine IL-10 (primary human T cells; [5]): decrease
production of pro-inflammatory cytokine IFNγ (primary human T cells; [5]): decrease
production of pro-inflammatory cytokine TNFα (primary human T cells; [5]): decrease
transcript of NOS2 ([2]; M1 marker): decrease
transcripts for Arg1 ([2]; M2 marker): increase
transcripts for IL-10 ([2]; M2 marker): increase
macrophage polarization (M1 or M2 phenotype) [2]: polarized toward an M2 phenotype

CC(C)NCC(O)c1cc(O)cc(O)c1 (stereo not drawn) [metaproterenol]
ADCC induced by agonist-treated NK cells, compared with NK cells pre-treated with a beta adrenergic antagonist prior to the agonist ([3]; surviving target cells by fluorescent viability stain): significantly less ADCC

CC(C)(C)NCC(O)COc1cccc2c1CC(O)C(O)C2 (stereo not drawn) [nadolol]
ADCC of NK cells treated with metaproterenol alone relative to NK cells pre-treated with this antagonist prior to the agonist [3]: significantly less ADCC

CC(C)NCC(O)COc1cccc2ccccc12 (stereo not drawn) [propranolol]
ADCC of NK cells treated with metaproterenol alone relative to NK cells pre-treated with this antagonist prior to the agonist [3]: significantly less ADCC

neuropeptide Y
cytokine IL-4 (primary human T cells; sub-nanomolar concentrations, 48 hours post-treatment): increase
